In paper PMC8231400, “Synthesis, biological evaluation and molecular docking investigation of new sulphonamide derivatives bearing naphthalene moiety as potent tubulin polymerisation inhibitors” (Journal of Enzyme Inhibition and Medicinal Chemistry, 2021):

Columns and labels:
[1] = tested on: MCF-7 human breast cancer cells; assay: In vitro antiproliferative assay (CCK-8), MCF-7; assay type: cell-based; conditions: CCK-8, 48 h, mean of three experiments
Procedure: (§1) In vitro antiproliferative assay 179 Human breast cancer cell line (MCF -7) and human non-small cell lung 180 carcinoma cell line (A549) were used to determine the antiproliferative of 181 the test compounds by CCK -8 assay. The cells were cultured in RPMI 182 media with 10% fetal bovine serum at 37 °C and 5% CO2 in a humidify 183 environment. In a word, cells were seeded in 96 -well plates 184 (1×10^5 cells/well) and cultured for overnight. […] Finally, 186 cell viability was determined by the CCK -8 method. 187 1.3. […] 190 EGTA) with 1 mM GTP and 5% glycerol. Then the plate was 191 immediately transferred to the spectrophotometer and microtubule 192 polymerization was monitored under 340 nm at 37 °C every 1 min over 193 20 min. […] 196 then the cells were treated with different concentrations of compound 5c 7

[2] = tested on: A549 human non-small cell lung carcinoma cells; assay: In vitro antiproliferative assay (CCK-8), A549; assay type: cell-based; conditions: CCK-8, 48 h, mean of three experiments
Procedure: as §1

[3] = Cytotoxicity against human normal liver cell line; assay type: cell-based; conditions: LO2 normal liver cells
tubulin = assay: In vitro tubulin polymerisation inhibitory assay (absorbance 340 nm); assay type: biochemical; conditions: 37 °C, 20 min, read-out: IC50 tubulin polymerisation inhibition
Procedure: In vitro antiproliferative assay 179 Human breast cancer cell line (MCF -7) and human non-small cell lung 180 carcinoma cell line (A549) were used to determine the antiproliferative of 181 the test compounds by CCK -8 assay. The cells were cultured in RPMI 182 media with 10% fetal bovine serum at 37 °C and 5% CO2 in a humidify 183 environment. In a word, cells were seeded in 96 -well plates 184 (1×10^5 cells/well) and cultured for overnight. […] Finally, 186 cell viability was determined by the CCK -8 method. 187 1.3. […] 190 EGTA) with 1 mM GTP and 5% glycerol. Then the plate was 191 immediately transferred to the spectrophotometer and microtubule 192 polymerization was monitored under 340 nm at 37 °C every 1 min over 193 20 min.

MCF-7 cancer cells [4] = assay: Cell cycle assay by flow cytometry (PI); assay type: cell-based, human; conditions: 24 h
Procedure: Due to microtubules play an important role in eukaryotic cell division, tubulin polymerisation inhibitors can disrupt regulated cell cycle distribution and block the cell cycle in G2/M phase [21]^,[29]. Therefore, the effect of compound 5c on the cell cycle of MCF-7 cancer cells was evaluated by using flow cytometry. […] 172 51.01, 56.22, 60.63, 107.33, 125.00, 125.21, 125.24, 127.40, 128.17, […] HRMS (ESI) calcd for [M+Na] + 175 C26H24N2NaO7S+: 531.1196 found 531.1162. Elemental analysis for 176 C26H24N2O7S: C, 61.41; H, 4.76; N, 5.51; S, 6.30 found C, 61.52; H, 177 4.702; N, 5.21; S, 6.100. […] In vitro antiproliferative assay 179 Human breast cancer cell line (MCF -7) and human non-small cell lung 180 carcinoma cell line (A549) were used to determine the antiproliferative of 181 the test compounds by CCK -8 assay. The cells were cultured in RPMI 182 media with 10% fetal bovine serum at 37 °C and 5% CO2 in a humidify 183 environment. In a word, cells were seeded in 96 -well plates 184 (1×10^5 cells/well) and cultured for overnight. After incubation, the cells 185 were treated with test compounds and positive control for 48 h. Finally, 186 cell viability was determined by the CCK -8 method. 187 1.3. In vitro tubulin polymerization inhibitory assay 188 Tubulin protein was mixed with different concentrations of compound 5c […] 190 EGTA) with 1 mM GTP and 5% glycerol. Then the plate was 191 immediately transferred to the spectrophotometer and microtubule 192 polymerization was monitored under 340 nm at 37 °C every 1 min over 193 20 min. […] Cell cycle assay 195 MCF-7 cells were seeded into 6-well plates and incubated for 24 h, and 196 then the cells were treated with different concentrations of compound 5c 7 page 8: 197 for 24 h. After incubation, the cells were harvested by centrifugation, and 198 fixed in ice-cold 70% ethanol overnight. After removed the ethanol, the 199 cells were incubated with RNase and propidium iodide. Finally, the 200 samples were analyzed by flow cytometry. 201 1.5. Cell apoptosis assay […] 203 then the cells were treated with different concentrations of compound 5c 204 for 24 h. Subsequently, the cells were incubated with Annexin-V/FITC 205 binding buffer and PI staining solution at room temperature. Finally, the 206 stained cells were analyzed using flow cytometry. 207 1.6. Molecular docking 208 Molecular docking studies were performed to investigate the binding […] The 210 three-dimensional (3D) coordinate of tubulin (PDB ID: 1SA0) was 211 downloaded from Protein Data Bank (www.rcsb.org). The 3D structure of 212 the compounds was obtained by ChemBioDraw Ultra 14.0 and 213 ChemBio3D Ultra 14.0 softwares. The AutoDockTools 1.5.6 package was 214 employed to generate the docking input files. The search grid of tubulin 215 was identified as center_x: 118.921, center_y: 89.718, and center_z: 216 5.932 with dimensions size_x: 15, size_y: 15, and size_z: 15. The value 217 of exhaustiveness was set to 20. For Vina docking, the default parameters 218 were used if it was not mentioned. The best-scoring pose as judged by the 219 Vina docking score was chosen and visually analyzed using PyMoL 1.7.6 220 software (www.pymol.org). 221 1.7 Molecular dynamics 222 The Amber 12 1-3 and AmberTools 13 programs were used for MD 223 simulations of the selected docked pose. MBPPS was first prepared by 224 ACPYPE 4, a tool based on ANTECHAMBER 5, 6 for generating 8

MCF-7 cancer cells [5] = assay: Annexin V-FITC/PI cell apoptosis assay; assay type: cell-based, human; design: Q1 quadrant / Q2 quadrant (upper right, late apoptotic cells) / Q4 quadrant / Q3 quadrant (lower right, early apoptotic cells): unit not given here; conditions: 24 h
Procedure: Since many literatures have reported that tubulin polymerisation inhibitors are able to induce cellular apoptosis [22]^,[30], the Annexin V-FITC/PI assay was carried out to examine the influence of compound 5c on cell apoptosis in MCF-7 cancer cells. […]
201 1.5. Cell apoptosis assay
203 then the cells were treated with different concentrations of compound 5c
204 for 24 h. Subsequently, the cells were incubated with Annexin-V/FITC
205 binding buffer and PI staining solution at room temperature. Finally, the
206 stained cells were analyzed using flow cytometry.
207 1.6. […]

**Q.** With COc1cc(N(Cc2ccc(C)cc2)S(=O)(=O)c2cccc3ccccc23)cc(OC)c1OC [8b] as the compound, how does the IC50 ([1]; Homo sapiens, MCF7) read?
**A.** 2.2 ± 0.19 µM

**Q.** What about the IC50 ([2]; Homo sapiens, A549) of the same compound?
**A.** 1.29 ± 0.19 µM

**Q.** What does the source list for COc1cc(N(Cc2ccc(Cl)cc2)S(=O)(=O)c2cccc3ccccc23)cc(OC)c1OC [8e]?
**A.** IC50 ([1]; Homo sapiens, MCF7): 15.6 ± 0.34 µM; IC50 ([2]; Homo sapiens, A549): 14.4 ± 0.8 µM

**Q.** What does the source list for COc1ccc(CN(c2cc(OC)c(OC)c(OC)c2)S(=O)(=O)c2ccc(C)cc2)cc1 [5a]?
**A.** IC50 ([1]; Homo sapiens, MCF7): 3.64 ± 0.25 µM; IC50 ([2]; Homo sapiens, A549): 5.34 ± 0.31 µM

**Q.** Which IC50 ([1]; Homo sapiens, MCF7) does the source give for COc1cc(N(Cc2ccc(F)cc2)S(=O)(=O)c2cccc3ccccc23)cc(OC)c1OC [8g] here?
**A.** > 30 µM

**Q.** What about the IC50 ([2]; Homo sapiens, A549) of the same compound?
**A.** > 30 µM

**Q.** Which IC50 ([1]; Homo sapiens, MCF7) does the source give for COc1cc(N(Cc2cccc(F)c2)S(=O)(=O)c2cccc3ccccc23)cc(OC)c1OC [8c] here?
**A.** > 30 µM

**Q.** What about the IC50 ([2]; Homo sapiens, A549) of the same compound?
**A.** > 30 µM

**Q.** Which IC50 ([1]; Homo sapiens, MCF7) does the source give for COc1ccc(CN(c2cc(OC)c(OC)c(OC)c2)S(=O)(=O)c2ccc(OC)cc2)cc1 [5e] here?
**A.** 0.87 ± 0.05 µM

**Q.** What about the IC50 ([2]; Homo sapiens, A549) of the same compound?
**A.** 0.62 ± 0.04 µM

**Q.** Which IC50 ([1]; Homo sapiens, MCF7) does the source give for COc1cc(N(Cc2ccc(C#N)cc2)S(=O)(=O)c2cccc3ccccc23)cc(OC)c1OC [8h] here?
**A.** > 30 µM

**Q.** And the IC50 ([2]; Homo sapiens, A549)?
**A.** > 30 µM

**Q.** With COc1cc(N(Cc2ccc(Br)cc2)S(=O)(=O)c2cccc3ccccc23)cc(OC)c1OC [8d] as the compound, how does the IC50 ([1]; Homo sapiens, MCF7) read?
**A.** 8.02 ± 0.58 µM

**Q.** What about the IC50 ([2]; Homo sapiens, A549) of the same compound?
**A.** > 30 µM

**Q.** Which IC50 ([1]; Homo sapiens, MCF7) does the source give for COc1ccc(CN(c2cc(OC)c(OC)c(OC)c2)S(=O)(=O)c2ccccc2)cc1 [5b] here?
**A.** > 30 µM

**Q.** What about the IC50 ([2]; Homo sapiens, A549) of the same compound?
**A.** > 30 µM

**Q.** With COc1cccc(CN(c2cc(OC)c(OC)c(OC)c2)S(=O)(=O)c2cccc3ccccc23)c1 [8a] as the compound, how does the IC50 ([1]; Homo sapiens, MCF7) read?
**A.** 20 ± 0.71 µM

**Q.** And the IC50 ([2]; Homo sapiens, A549)?
**A.** > 30 µM

**Q.** With COc1cc(N(Cc2ccccc2[N+](=O)[O-])S(=O)(=O)c2cccc3ccccc23)cc(OC)c1OC [8i] as the compound, how does the IC50 ([1]; Homo sapiens, MCF7) read?
**A.** > 30 µM

**Q.** What about the IC50 ([2]; Homo sapiens, A549) of the same compound?
**A.** 4.76 ± 0.31 µM

**Q.** What does the source list for COc1ccc(CN(c2cc(OC)c(OC)c(OC)c2)S(=O)(=O)c2cccc3ccccc23)cc1 [5c]?
**A.** IC50 ([1]; Homo sapiens, MCF7): 0.51 ± 0.03 µM; IC50 ([2]; Homo sapiens, A549): 0.33 ± 0.01 µM; IC50 [3]: 12.7 ± 3.26 µM; IC50 (tubulin): 2.8 µM; G1 population (MCF-7 cancer cells [4]; MCF-7, 0.125 μM): 44.63%; G2/M population (MCF-7 cancer cells [4]; MCF-7, 0.125 μM): 30.77%; S population (MCF-7 cancer cells [4]; MCF-7, 0.125 μM): 24.59%; G1 population (MCF-7 cancer cells [4]; MCF-7, 0.25 μM): 6.61%; G2/M population (MCF-7 cancer cells [4]; MCF-7, 0.25 μM): 57.50%; S population (MCF-7 cancer cells [4]; MCF-7, 0.25 μM): 35.89%; G2/M population (MCF-7 cancer cells [4]; MCF-7, 0.5 µM): 82.22%; G1 population (MCF-7 cancer cells [4]; MCF-7, 0.50 μM): 6.89%; S population (MCF-7 cancer cells [4]; MCF-7, 0.50 μM): 10.89%; Q1 quadrant (MCF-7 cancer cells [5]; MCF-7, 0.125 μM): 0.88; Q2 quadrant (upper right, late apoptotic cells) (MCF-7 cancer cells [5]; MCF-7, 0.125 μM): 11.3; Q3 quadrant (lower right, early apoptotic cells) (MCF-7 cancer cells [5]; MCF-7, 0.125 μM): 7.37; Q4 quadrant (MCF-7 cancer cells [5]; MCF-7, 0.125 μM): 80.4; total numbers of early and late apoptotic cells (MCF-7 cancer cells [5]; MCF-7, 0.125 μM): 18.67%; Q1 quadrant (MCF-7 cancer cells [5]; MCF-7, 0.25 μM): 0.77; Q2 quadrant (upper right, late apoptotic cells) (MCF-7 cancer cells [5]; MCF-7, 0.25 μM): 12.6; Q3 quadrant (lower right, early apoptotic cells) (MCF-7 cancer cells [5]; MCF-7, 0.25 μM): 20.5; Q4 quadrant (MCF-7 cancer cells [5]; MCF-7, 0.25 μM): 66.1; total numbers of early and late apoptotic cells (MCF-7 cancer cells [5]; MCF-7, 0.25 μM): 33.1%; total numbers of early and late apoptotic cells (MCF-7 cancer cells [5]; MCF-7, 0.5 µM): 50.3%; Q1 quadrant (MCF-7 cancer cells [5]; MCF-7, 0.50 μM): 0.58; Q2 quadrant (upper right, late apoptotic cells) (MCF-7 cancer cells [5]; MCF-7, 0.50 μM): 17.7; Q3 quadrant (lower right, early apoptotic cells) (MCF-7 cancer cells [5]; MCF-7, 0.50 μM): 32.6; Q4 quadrant (MCF-7 cancer cells [5]; MCF-7, 0.50 μM): 49.2

**Q.** With O=c1[nH]cc(F)c(=O)[nH]1 [5-Fu, 5-fluorouracil, reference compound] as the compound, how does the IC50 ([1]; Homo sapiens, MCF7) read?
**A.** 11.6 ± 0.6 µM

**Q.** What about the IC50 ([2]; Homo sapiens, A549) of the same compound?
**A.** 2.75 ± 0.31 µM

**Q.** For COc1ccc(/C=C\c2cc(OC)c(OC)c(OC)c2)cc1O [CA-4, combretastatin A-4, reference compound], which IC50 ([1]; Homo sapiens, MCF7) is on record?
**A.** 5.55 ± 0.11 µM

**Q.** What about the IC50 ([2]; Homo sapiens, A549) of the same compound?
**A.** 0.029 ± 0.004 µM

**Q.** For COc1ccc(CN(c2cc(OC)c(OC)c(OC)c2)S(=O)(=O)c2ccc3ccccc3c2)cc1 [5d], which IC50 ([1]; Homo sapiens, MCF7) is on record?
**A.** 5.72 ± 0.18 µM

**Q.** What about the IC50 ([2]; Homo sapiens, A549) of the same compound?
**A.** > 30 µM

**Q.** For COc1cc(N(Cc2cccc(Br)c2)S(=O)(=O)c2cccc3ccccc23)cc(OC)c1OC [8f], which IC50 ([1]; Homo sapiens, MCF7) is on record?
**A.** > 30 µM

**Q.** What about the IC50 ([2]; Homo sapiens, A549) of the same compound?
**A.** > 30 µM

**Q.** What does the source list for N.N.[Cl][Pt][Cl] [Cisplatin, reference compound]?
**A.** IC50 [1]: 11.2 ± 0.75 µM; IC50 [2]: 4.92 ± 0.46 µM
